Experimental data from PubChem BioAssay (NCI).
Where “and” joins values, the source holds several entries; their conditions need not be identical. Equal entries are not always repeated.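 All cell lines were grown in 96-well plates and treated with compound for 48 hours. GI50 marks 50% less growth. Definition used: TGI = concentration required for complete inhibition of growth.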

Experiments:
Assay in all cases: DTP human tumour cell line panel, 48 h
[1] = tested on: 786-0 renal
[2] = tested on: A549 NSCLC
[3] = tested on: ACHN renal
[4] = tested on: CAKI-1 renal
[5] = tested on: CCRF-CEM leukemia
[6] = tested on: COLO 205 colon
[7] = tested on: DLD-1 colon
[8] = tested on: DMS 114 small cell lung
[9] = tested on: EKVX NSCLC
[10] = tested on: HCT-116 colon
[11] = tested on: HCT-15 colon
[12] = tested on: HL-60(TB) leukemia
[13] = tested on: HOP-18 NSCLC
[14] = tested on: HOP-62 NSCLC
[15] = tested on: HOP-92 NSCLC
[16] = tested on: HT29 colon
[17] = tested on: IGROV1 ovarian
[18] = tested on: K-562 leukemia
[19] = tested on: KM12 colon
[20] = tested on: KM20L2 colon
[21] = tested on: LOX IMVI melanoma
[22] = tested on: LXFL 529 NSCLC
[23] = tested on: M14 melanoma
[24] = tested on: M19-MEL melanoma
[25] = tested on: MALME-3M melanoma
[26] = tested on: MOLT-4 leukemia
[27] = tested on: NCI-H23 lung
[28] = tested on: NCI-H522 lung
[29] = tested on: OVCAR-3 ovarian
[30] = tested on: OVCAR-5 ovarian
[31] = tested on: OVCAR-8 ovarian
[32] = tested on: RPMI-8226 leukemia
[33] = tested on: RXF 393 renal
[34] = tested on: SF-268 CNS
[35] = tested on: SF-295 CNS
[36] = tested on: SK-MEL-2 melanoma
[37] = tested on: SK-MEL-28 melanoma
[38] = tested on: SK-MEL-5 melanoma
[39] = tested on: SK-OV-3 ovarian
[40] = tested on: SN12C renal
[41] = tested on: SNB-19 CNS
[42] = tested on: SNB-75 CNS
[43] = tested on: SNB-78 CNS
[44] = tested on: SR leukemia
[45] = tested on: SW-620 colon
[46] = tested on: TK-10 renal
[47] = tested on: U251 CNS
[48] = tested on: UACC-257 melanoma
[49] = tested on: UACC-62 melanoma
[50] = tested on: UO-31 renal
[51] = tested on: A498 renal
[52] = tested on: BT-549 breast
[53] = tested on: DMS 273 small cell lung
[54] = tested on: DU-145 prostate
[55] = tested on: HCC-2998 colon
[56] = tested on: HS 578T breast
[57] = tested on: MCF7 breast
[58] = tested on: MDA-MB-231 breast
[59] = tested on: MDA-N
[60] = tested on: NCI-H226 lung
[61] = tested on: NCI-H460 lung
[62] = tested on: NCI/ADR-RES ovarian
[63] = tested on: OVCAR-4 ovarian
[64] = tested on: PC-3 prostate
[65] = tested on: SF-539 CNS
[66] = tested on: T-47D breast

O=c1[nH]cnc2c(COCCCO)c[nH]c12
TGI [1]: > 100 µM | TGI [2]: > 100 µM | TGI [3]: > 100 µM | TGI [4]: > 100 µM | TGI [5]: > 100 µM | TGI [6]: > 100 µM | TGI [7]: > 100 µM | TGI [8]: > 100 µM | TGI [9]: > 100 µM | TGI [10]: > 100 µM | TGI [11]: > 100 µM | TGI [12]: > 100 µM | TGI [13]: > 100 µM | TGI [14]: > 100 µM | TGI [15]: > 100 µM | TGI [16]: > 100 µM | TGI [17]: > 100 µM | TGI [18]: > 100 µM | TGI [19]: > 100 µM | TGI [20]: > 100 µM | TGI [21]: > 100 µM | TGI [22]: > 100 µM | TGI [23]: > 100 µM | TGI [24]: > 100 µM | TGI [25]: > 100 µM | TGI [26]: > 100 µM | TGI [27]: > 100 µM | TGI [28]: > 100 µM | TGI [29]: > 100 µM | TGI [30]: > 100 µM | TGI [31]: > 100 µM | TGI [32]: > 100 µM | TGI [33]: > 100 µM | TGI [34]: > 100 µM | TGI [35]: > 100 µM | TGI [36]: > 100 µM | TGI [37]: > 100 µM | TGI [38]: > 100 µM | TGI [39]: > 100 µM | TGI [40]: > 100 µM | TGI [41]: > 100 µM | TGI [42]: > 100 µM | TGI [43]: > 100 µM | TGI [44]: > 100 µM | TGI [45]: > 100 µM | TGI [46]: > 100 µM | TGI [47]: > 100 µM | TGI [48]: > 100 µM | TGI [49]: > 100 µM | TGI [50]: > 100 µM

COc1ccc(NCc2cc(OC)c(OC)c(OC)c2)cc1
TGI [1]: > 100 µM | TGI [51]: > 70.6 µM and 17.3 µM | TGI [2]: > 100 µM | GI50 [3]: 0.713 µM and 1.84 µM | TGI [3]: > 100 µM | TGI [52]: > 100 µM | GI50 [4]: 0.404 µM and 1.04 µM | TGI [4]: > 100 µM | GI50 [5]: 0.281 µM and 0.855 µM | TGI [5]: > 100 µM | TGI [6]: 0.784 µM and 2.83 µM | TGI [7]: > 100 µM | TGI [8]: 0.833 µM and 0.654 µM | TGI [53]: > 100 µM | TGI [54]: > 47.8 µM | TGI [9]: > 100 µM | TGI [55]: 2.73 µM and 3.31 µM | TGI [10]: > 72 µM and 34.1 µM | TGI [11]: > 39.7 µM and 36.5 µM | GI50 [13]: > 43.3 µM | TGI [13]: > 100 µM | TGI [14]: > 74.1 µM | TGI [15]: > 100 µM and 19.4 µM | TGI [56]: > 100 µM | TGI [16]: > 100 µM and 12.9 µM | TGI [17]: > 100 µM | GI50 [18]: 0.0444 µM and 0.114 µM | TGI [18]: > 100 µM | TGI [19]: > 32.7 µM and 31.3 µM | GI50 [20]: 0.198 µM | TGI [21]: > 100 µM | TGI [22]: > 100 µM | TGI [23]: > 100 µM and 15.4 µM | TGI [25]: > 100 µM | TGI [57]: > 100 µM | TGI [58]: > 100 µM | TGI [59]: 2.55 µM | TGI [26]: > 100 µM | GI50 [60]: 0.414 µM and 4.04 µM | TGI [60]: 6.38 µM and 29.1 µM | TGI [27]: 31.4 µM | TGI [61]: > 32.7 µM and 37.1 µM | TGI [62]: > 17.1 µM | TGI [29]: 1.17 µM and 2.89 µM | TGI [63]: > 100 µM | GI50 [30]: > 91.7 µM and 20.2 µM | TGI [30]: > 100 µM | TGI [31]: > 100 µM | TGI [64]: > 100 µM | TGI [32]: > 100 µM | TGI [33]: 7.62 µM | TGI [34]: > 100 µM | TGI [65]: 2.22 µM and 0.929 µM | GI50 [36]: 0.328 µM | TGI [36]: > 100 µM | TGI [37]: > 100 µM | GI50 [38]: 0.252 µM | TGI [38]: 32.7 µM and > 74.5 µM | TGI [39]: > 100 µM and 22.5 µM | TGI [40]: > 100 µM | TGI [41]: > 100 µM | GI50 [42]: 0.513 µM and 0.262 µM | TGI [42]: > 100 µM | TGI [43]: > 100 µM | TGI [44]: > 29 µM | TGI [45]: > 100 µM | TGI [66]: > 100 µM | TGI [46]: > 100 µM | TGI [47]: > 58.9 µM and 15.1 µM | GI50 [48]: 0.338 µM and 1.16 µM | TGI [48]: > 100 µM | GI50 [49]: 0.308 µM | TGI [49]: > 100 µM | GI50 [50]: 2.79 µM | TGI [50]: > 100 µM

CCN=C1Nc2ccccc2-n2c(nn3nc4ccccc4c23)N1CC
TGI [1]: > 100 µM | TGI [51]: > 100 µM | TGI [2]: > 100 µM | TGI [3]: > 100 µM | TGI [5]: > 100 µM | TGI [6]: > 100 µM | TGI [7]: > 100 µM | TGI [8]: > 100 µM | TGI [53]: > 100 µM | TGI [9]: > 100 µM | TGI [10]: > 100 µM | TGI [11]: > 100 µM | TGI [12]: > 100 µM | TGI [13]: > 100 µM | TGI [14]: > 100 µM | TGI [15]: > 100 µM | TGI [16]: > 100 µM | TGI [17]: > 100 µM | TGI [18]: > 100 µM | TGI [19]: > 100 µM | TGI [20]: > 100 µM | TGI [21]: > 100 µM | TGI [22]: > 100 µM | TGI [23]: > 100 µM | TGI [24]: > 100 µM | TGI [26]: > 100 µM | TGI [60]: > 100 µM | TGI [27]: > 100 µM | TGI [61]: > 100 µM | TGI [28]: > 100 µM | TGI [63]: > 100 µM | TGI [30]: > 100 µM | TGI [31]: > 100 µM | TGI [32]: > 100 µM | TGI [33]: > 100 µM | TGI [34]: > 100 µM | TGI [35]: > 100 µM | TGI [65]: > 100 µM | TGI [37]: > 100 µM | TGI [38]: > 100 µM | TGI [40]: > 100 µM | TGI [41]: > 100 µM | TGI [42]: > 100 µM | TGI [44]: > 100 µM | TGI [45]: > 100 µM | TGI [47]: > 100 µM | TGI [48]: > 100 µM | TGI [49]: > 100 µM

COc1cc2cccc(N=Cc3ccccc3Cl)c2cc1OC
TGI [1]: > 100 µM | TGI [2]: > 100 µM | TGI [3]: > 100 µM | TGI [4]: > 100 µM | TGI [5]: > 100 µM | TGI [6]: > 100 µM | TGI [7]: > 100 µM | TGI [8]: > 100 µM | TGI [9]: > 100 µM | TGI [55]: > 100 µM | TGI [10]: > 100 µM | TGI [11]: > 100 µM | TGI [12]: > 100 µM | TGI [13]: > 100 µM | TGI [14]: > 100 µM | TGI [15]: > 100 µM | TGI [16]: > 100 µM | TGI [17]: > 100 µM | TGI [18]: > 100 µM | TGI [19]: > 100 µM | TGI [20]: > 100 µM | TGI [21]: > 100 µM | TGI [22]: > 100 µM | TGI [23]: > 100 µM | TGI [24]: > 100 µM | TGI [25]: > 100 µM | TGI [26]: > 100 µM | TGI [60]: > 100 µM | TGI [27]: > 100 µM | TGI [61]: > 100 µM | TGI [28]: > 100 µM | TGI [29]: > 100 µM | TGI [63]: > 100 µM | TGI [30]: > 100 µM | TGI [31]: > 100 µM | TGI [32]: > 100 µM | TGI [33]: > 100 µM | TGI [34]: > 100 µM | TGI [35]: > 100 µM | TGI [65]: > 100 µM | TGI [36]: > 100 µM | TGI [37]: > 100 µM | TGI [38]: > 100 µM | TGI [39]: > 100 µM | TGI [40]: > 100 µM | TGI [41]: > 100 µM | TGI [42]: > 100 µM | TGI [43]: > 100 µM | TGI [44]: > 100 µM | TGI [45]: > 100 µM | TGI [46]: > 100 µM | TGI [47]: > 100 µM | TGI [48]: > 100 µM | TGI [49]: > 100 µM | TGI [50]: > 100 µM
